In paper PMC6085350, “Small molecule inhibitors of RAS-effector protein interactions derived using an intracellular antibody fragment” (Nature Communications, 2018):
“And” between values parts separate entries of the source, which are not always exact repeats. Identical values can stand only once.

Experiments:
GST-KRASG12V-GppNHp = biological target: T1, GST-KRASG12V-GppNHp (Homo sapiens, UniProt P01116, G12V); experiment: 1H CPMG NMR protein titration for Kd; assay type: binding; details: for Kd: CPMG NMR titration, 55 μM compound, read-out: Kd (binding affinity)
T1 construct: made in house; host or cells: E. coli (pGEX-2T; strain named only for the HRAS plasmids)
Description: Typical experimental parameters for Carr–Purcell-Meiboom-Gill (CPMG) NMR spectroscopy were the following: total echo time, 40 ms; relaxation delay, 2 s; and number of transients, […][53]. The PROJECT-CPMG sequence (90°x-[Ƭ-180°y-Ƭ- 90°y-Ƭ-180°y-Ƭ]n-acq) was applied. Water suppression was achieved by pre-saturation. Prior to Fourier transformation, the data were multiplied with an exponential function with 3-Hz line broadening. The CPMG experiments were conducted at a ^1H frequency of 700 MHz using a Bruker Avance with 5 mm inverse TCI 1 H/13 C/15 N cryo-probe. All experiments were conducted at 298 K and lapsed 128 scans. Furthermore, 3 mm diameter NMR tubes with a sample volume of 200 µl were used in all experiments. Solutions were buffered using a D2O PBS buffer corrected to pH 7.4. The sample preparation is exemplified as follow: with 5 µM of protein (PBS pH 7.4, 5 mM MgCl2), the compound (1.1 µl of a 10 mM (55 uM) solution in DMSO-d6) was added to an eppendorf before sequential addition of the D2O 10 mM PBS, 5 mM MgCl2 buffer adjusted to pH 7.4 (194.0 µl) and protein (4.9 µl, 205 µM, the protein is in an H2O-based buffer for stability reason). The resulting solution was vortexed to be fully mixed and transferred to a 3 mm NMR tube before the run. Negative controls (compound alone, without the protein) were prepared in a similar manner, in order to obtain an end volume of 200 µl. CPMG protein titration experiments were carried out at a fixed compound concentration and a variable protein concentration. It was estimated that 55 μM solution of the compound was optimum for a good CPMG; protein was titrate increasingly from 0 µM until the signal of the compound was undetected in the proton NMR. The integrations of the protons acquired were compared to the reference (compound alone, 0 µM of protein) in order to obtain a percentage of decrease for each concentration of protein. Three different proton signals were used and a mean was calculated for each run. Each protein concentration was run in triplicate and a mean was calculated for each concentration. Where error bars are presented, they correspond to mean values ± SD of experimental repeats. Concentration and percentage of decrease were plotted and Kd fitting was run on the generated curve using Origin® with the following function: A*(1/(2*C))*((B + x + C)-sqrt(((B + x + C)^2)-(4*x*C))) where A is the maximum % of inhibition (i.e. 100), B is the Kd and C is the concentration of the compound which should not be fixed in the Origin® Equation due to potential variations in compound solubility.
(§1) Supplementary Figure 6: Abd-7 Binding in WaterLOGSy and Kd calculations in CPMG WaterLOGSY and CPMG NMR orthogonal analysis of Abd-5 (panel a, b), Abd-6 (c, d), and Abd-7 (e, f) with GST-KRASG12V-GppNHp. For each waterLOGSY profile, the proton NMR spectrum of the compound is shown together the spectra of the compound after incubation with the KRAS (the NOE transfers occurs when the compounds displace those waters upon binding to the protein). The Kd of interaction of the compounds come from fitting a binding curve (right of panels b, d, f) of a CPMG titration (shown on the left of panels b, d, f). The calculated Kd is shown for each compound.
(MW), Kd, Solubility and ligand efficiency (LE). Each experiment was repeated at least three times. Where error bars are presented, they correspond to mean values ± SD of experimental repeats (b, d and f).

KRAS^G12V-GppNHp = biological target: T2, KRAS^G12V-GppNHp (Homo sapiens, UniProt P01116, G12V); experiment: waterLOGSY NMR binding
T2 construct: made in house; host or cells: E. coli (pGEX-2T; strain named only for the HRAS plasmids)
Description: The waterLOGSY NMR method[35] was used to measure RAS ligand interaction. WaterLOGSY experiments were conducted at a ^1H frequency of 600 MHz using a Bruker Avance spectrometer equipped with a BBI probe. All experiments were conducted at 298 K, 3 mm diameter NMR tubes with a sample final volume of 200 µl was used in all experiments. Solutions were buffered using an H2O 10 mM PBS, 5 mM MgCl2 buffer corrected to pH 7.4. The sample preparation is exemplified as follows, the compound (10 µl of a […] solution in DMSO-d6) was added to an eppendorf before sequential addition of the H2O PBS buffer (163.6 µl), D2O (20 µl), and protein (6.4 µl, 311.8 µM). The resulting solution was spun to ensure full mixing and transferred to a 3 mm NMR tube before running the experiment. For a competition experiment using Y6-scFv or VH, the preparation was carried out in a similar manner; the compound (10 µl of a 10 mM solution in DMSO-d6) was added to an eppendorf before sequential addition of the H2O PBS buffer (146.4 µl), D2O (20 µl), protein (6.4 µl, 311.8 µM) and Y6-ScFv (17.2 µl, 116.6 µM) with a ratio of 5.5:1:1. The resulting solution was spun and transferred to a 3 mm NMR tube before the run. Negative controls (compound alone, without the protein) were prepared in a similar manner, in order to obtain an end volume of 200 μl.
Supplementary Figure 3: Abd-2 WaterLOGSY NMR with and without anti RAS-scFV Abd-2 was analyzed by waterLOGSY. […]
binding of Abd-2 to KRAS -GppNHp (upper trace, in green) but poor binding to KRAS-GDP (middle trace, in red). The proton NMR spectrum of Abd-2 in the absence of protein is […]
shown in the lower trace. Panel b, WaterLOGSY of Abd-2 with KRAS -GppNHp in the presence or absence of scFv competitor respectively top (no binding of Abd-2 to the […]
KRAS -GppNHp + scFv complex) and middle spectra (binding to KRAS -GppNHp without scFv) in purple and red respectively. The lower spectra is the proton NMR of Abd -2 in the absence of protein. Results from panel b confirm the interference of binding by the […]
(1 picture or pasted object on this page, not shown here)
as §1
(MW), Kd, Solubility and ligand efficiency (LE). […]

Row | ligand efficiency (GST-KRASG12V-GppNHp) | Kd (GST-KRASG12V-GppNHp) [nM] | binding to KRAS^G12V-GppNHp (waterLOGSY) (KRAS^G12V-GppNHp) | Compound
1 | ~0.3 | 220 | confirmed | COc1cccc(-c2cccc3c2OC(CNC(=O)c2ccc(OCCN(C)C)cc2)CO3)n1 (stereo not shown) [Abd-5]
2 | – | – | preferential binding | O=C(NCC1COc2ccccc2O1)c1ccco1 (stereo not shown) [Abd-2]
3 | ~0.3 | 38 | confirmed | COc1nc(-c2cccc3c2O[C@H](CNC(=O)C2CCOCC2)CO3)ccc1Nc1cccc(CN(C)C)c1 [Abd-6]
4 | ~0.3 and 0.34 | 51 | confirmed | COc1nc(-c2cccc3c2OCCO3)ccc1Nc1ccc(CN(C)C)cc1 [Abd-7]
